Columns and labels:
[1] = target: T1, LC8 and FKBP-LC8TRAP (Homo sapiens, UniProt P62942, F37V); test: Native PAGE of LC8-LC8TRAP complex formation induced by dimerizer; assay type: biochemical; conditions: for complex formation between LC8 and FKBP-LC8TRAP (new band): native PAGE, addition of dimerization agent
T1 construct: made in house; host or cells: bacteria (pET21D vector)
Protocol: (§1) Native PAGE. Each of, LC8 and FKBP-LC8TRAP, were mixed in a molar concentration of 50 μM and 1.2 molar excess (60 μM) of AP20187 or 2.4 molar excess (120 μM) of PhAP20187. The mix were incubated at 4° C. for 5 min. Native PAGE analysis was performed at 16° C. using 8-25% gradient gels on the PHASTSYSTEM™ (GE Biosciences).
We then tested whether this replacement of the amine linker with the o-nitrobenzyl moiety affected the dimerization of FKBP in vitro. We used native PAGE to follow the formation of the LC8-LC8 molecular trap (LC8TRAP) complex induced by addition of PhAP. See e.g., Varma et al., 2010 (Id.) Upon the addition of PhAP to an equimolar mixture of LC8 and LC8TRAP, we observed a new band that migrated the same distance as the band produced by addition of AP (FIG. 2A).
Native PAGE analysis was conducted for stoichiometric complex formation between LC8 and FKBP-LC8TRAP on addition of dimerization agent AP.

[2] = tested on: LC8-LC8TRAP complex; test: UV light (350 nm) disruption of dimerizer-LC8-LC8TRAP complex, native PAGE; assay type: biochemical; conditions: UV 350 nm
Protocol: as §1
Next, we characterized how well UV light could disrupt the PhAP-LC8-LC8TRAP complex in vitro. We generated the PhAP-LC8-LC8TRAP and AP-LC8-LC8TRAP complexes and exposed each to UV light (350 nm). Native PAGE indicated loss of the band corresponding to the PhAP-LC8-LC8TRAP complex and an increase in intensity of bands corresponding to the individual components after UV induction. The band corresponding to the PhAP-LC8-LC8TRAP complex was less intense in samples that received a five min exposure to UV light and undetectable after a 10 min exposure. On the other hand, the LC8-LC8TRAP complex induced by the non-photocleavable AP persisted, even after a 30 min exposure to UV light (FIG. 2C).

[3] = tested on: EGFP-FKBP-LC8TRAP transfected COS1 cells; test: Reversibility of endosome dispersion after UV induction; assay type: cell-based; conditions: for Percentage of endosomes dispersion (recovery): UV 10 min
Protocol: Cell Culture. COS1 cells were cultured in DMEM (CELLGRO®) supplemented with 10% fetal bovine/calf serum (Omega Scientific). Transfection was performed in 80-90% confluent 24-h cultures of COS1 cells using LIPOFECTAMINE™ 2000 (Invitrogen) and OPTI-MEM™ media (GIBCO®) according to the manufacturer's recommendations. Various concentrations (0 nM to 1000 nM) of AP (Ariad Pharmaceuticals Inc.) and PhAP (as described herein) were added to each experimental wells 24 hr. post transfection and incubated for different periods of time before analyzing the cells. For reversibility of endosome dispersion studies, 500 nM of AP/PhAP were used. In each case, the cells were washed well with PBS and supplemented with fresh media before inducing with UV light (10 mins., 4 W, 350 nm) and allowed to recover for various time period at 37° C., before analysis.
Immunostaining and Microscopy. For immunostaining, transiently transfected COS1 cells were fixed with 3.7% formaldehyde at room temperature for 10 min, and subsequent immunostaining was performed as described previously^[2]. Briefly, COS 1 cells grown on 25-mm coverslips were washed 3× with PBS, treated with 3.7% formaldehyde (Sigma) in PBS for fixation, and permeabilized in 0.5% Triton X-100 (Sigma) in PBS at room temperature for 10 min. Cells were then incubated with blocking buffer containing 4% skimmed milk (fat free) and 0.5% Triton X-100 in PBS. Anti-EEA1 monoclonal antibody was added to label early endosome marker protein at a dilution of 1:100 in the same buffer for 30 min at RT, and the coverslips were washed and incubated with rhodamine-conjugated donkey anti-mouse secondary antibody (1:100). After washing, the coverslips were mounted on slides to visualize the trapping effects. Samples were viewed using an Olympus IX81 automated inverted microscope equipped with water immersion 60× objective. The level of dispersion was quantified by counting 100 cells per coverslip. Each experiment was performed in triplicate. Images were obtained using a Spot RT Slider high-resolution cooled CCD camera equipped to IX81 microscope and Image-Pro software. Images were cropped and processed using Adobe Photoshop 7.0 (Adobe Systems).
UV induction. For UV-induction and recovery of endosome studies, cells were washed with PBS and fresh media were added after drug treatment. The washed cells were then treated with a hand held UV-lamp (365 nm/4 watt) for 10 mins. The cells were then left to recover at 37° C. for varying period of time before staining and analysis.
Next, we characterized the reversibility of endosome dispersion in COS1 cells UV-induced cleavage of PhAP. In these experiments, transiently transfected cells were incubated with PhAP (500 nM) or AP for times ranging from 0-2 h, after which cells were washed rapidly, replenished with fresh media, and then exposed to UV light (10 min, 4 W, 350 nm). The cells were then fixed at 0, 1, 2, 4, and 8 h post UV radiation and the endosomes imaged using fluorescence microscopy at 60× magnification. We observed a gradual recovery of endosomes to the perinuclear region during the first 4 h after UV exposure (44.1±2.3%), with a slight increase in dispersion after 8 h (48.9±3.9%), for cells treated with PhAP (FIG. 3A).

[4] = 30 mins. treatment (500 nM), recovery 0 h
[5] = 30 mins. treatment (500 nM), recovery 1 h
[6] = 30 mins. treatment (500 nM), recovery 2 h
[7] = 30 mins. treatment (500 nM), recovery 4 h
[8] = 30 mins. treatment (500 nM), recovery 8 h
[9] = 1 hr. treatment (500 nM), recovery 0 h
[10] = 1 hr. treatment (500 nM), recovery 1 h
[11] = 1 hr. treatment (500 nM), recovery 2 h
[12] = 1 hr. treatment (500 nM), recovery 4 h
[13] = 1 hr. treatment (500 nM), recovery 8 h
[14] = 2 hr. treatment (500 nM), recovery 0 h
[15] = 2 hr. treatment (500 nM), recovery 1 h
[16] = 2 hr. treatment (500 nM), recovery 2 h
[17] = 2 hr. treatment (500 nM), recovery 4 h
[18] = 2 hr. treatment (500 nM), recovery 8 h

T1 sequence (P62942 with tags, fused parts or gaps F37V): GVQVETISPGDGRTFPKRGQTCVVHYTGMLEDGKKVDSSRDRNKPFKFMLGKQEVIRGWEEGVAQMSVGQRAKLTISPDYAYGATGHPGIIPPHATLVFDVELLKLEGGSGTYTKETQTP

Structure (SMILES): CC[C@H](C(=O)N1CCCC[C@H]1C(=O)O[C@H](CCc1ccc(OC)c(OC)c1)c1cccc(OCC(=O)OC(C)c2ccc(C(C)OC(=O)COc3cccc([C@@H](CCc4ccc(OC)c(OC)c4)OC(=O)[C@@H]4CCCCN4C(=O)[C@@H](CC)c4cc(OC)c(OC)c(OC)c4)c3)c([N+](=O)[O-])c2)c1)c1cc(OC)c(OC)c(OC)c1 (some centres unmarked) [PhAP]
- concentration required to produce a complex band of the same intensity as the sample treated with AP ([1]; equimolar mixture of LC8 and LC8TRAP, relative to AP): 2 ×
- complex formation between LC8 and FKBP-LC8TRAP (new band) [1]: can also form complex between LC8 and FKBP-LC8TRAP efficiently
- band of dimerizer-LC8-LC8TRAP complex after UV exposure ([2]; 10 min exposure): undetectable
- band of dimerizer-LC8-LC8TRAP complex after UV exposure ([2]; five min exposure): less intense
- Percentage of endosomes dispersion (recovery) [3, 4]: 53.2±2.4%
- Percentage of endosomes dispersion (recovery) [3, 5]: 53.7 ± 4.0%
- Percentage of endosomes dispersion (recovery) [3, 6]: 50.8 ± 2.3%
- Percentage of endosomes dispersion (recovery) [3, 7]: 48.0 ± 0.5%
- Percentage of endosomes dispersion (recovery) [3, 8]: 49.3 ± 6.7%
- Percentage of endosomes dispersion (recovery) [3, 9]: 57.8±8.0%
- Percentage of endosomes dispersion (recovery) [3, 10]: 56.4 ± 1.7%
- Percentage of endosomes dispersion (recovery) [3, 11]: 55.7 ± 8.8%
- Percentage of endosomes dispersion (recovery) [3, 12]: 46.7 ± 0.6%
- Percentage of endosomes dispersion (recovery) [3, 13]: 48.1 ± 2.0%
- Percentage of endosomes dispersion (recovery) [3, 14]: 69.5 ± 2.4%
- Percentage of endosomes dispersion (recovery) [3, 15]: 66.3 ± 3.2%
- Percentage of endosomes dispersion (recovery) [3, 16]: 57.6 ± 2.6%
- Percentage of endosomes dispersion (recovery) [3, 17]: 44.1±2.3%
- Percentage of endosomes dispersion (recovery) [3, 18]: 48.9±3.9%

Structure (SMILES): CCC(C(=O)N1CCCCC1C(=O)OC(CCc1ccc(OC)c(OC)c1)c1cccc(OCC(=O)NCC(CNC(=O)COc2cccc(C(CCc3ccc(OC)c(OC)c3)OC(=O)C3CCCCN3C(=O)C(CC)c3cc(OC)c(OC)c(OC)c3)c2)CN(C)C)c1)c1cc(OC)c(OC)c(OC)c1 (centres unmarked) [AP, AP20187]
- complex formation between LC8 and FKBP-LC8TRAP (new band) [1]: produces a new band
- band of dimerizer-LC8-LC8TRAP complex after UV exposure ([2]; 30 min exposure): persisted
- endosome dispersion after UV exposure, all time points ([3]; 0-8 h post UV, with or without UV exposure): remained dispersed at all time points evaluated
- Percentage of endosomes dispersion (recovery) [3, 4]: 51.8 ± 4.4%
- Percentage of endosomes dispersion (recovery) [3, 5]: 64.7 ± 2.0%
- Percentage of endosomes dispersion (recovery) [3, 6]: 68.3 ± 3.7%
- Percentage of endosomes dispersion (recovery) [3, 7]: 69.8 ± 4.3%
- Percentage of endosomes dispersion (recovery) [3, 8]: 67.9 ± 1.9%
- saturation point of endosome dispersion ([3]; 30 minutes or 1 hr treatment followed by UV exposure): ~70%
- Percentage of endosomes dispersion (recovery) [3, 9]: 58.0 ± 4.3%
- Percentage of endosomes dispersion (recovery) [3, 10]: 71.2 ± 2.5%
- Percentage of endosomes dispersion (recovery) [3, 11]: 69.7 ± 3.6%
- Percentage of endosomes dispersion (recovery) [3, 12]: 70.4 ± 3.1%
- Percentage of endosomes dispersion (recovery) [3, 13]: 70.8 ± 1.9%
- Percentage of endosomes dispersion (recovery) [3, 14]: 69.1 ± 3.2%
- Percentage of endosomes dispersion (recovery) [3, 15]: 68.9 ± 3.2%
- Percentage of endosomes dispersion (recovery) [3, 16]: 70.7 ± 4.0%
- Percentage of endosomes dispersion (recovery) [3, 17]: 69.5 ± 1.9%
- Percentage of endosomes dispersion (recovery) [3, 18]: 70.3 ± 3.3%
